Results published in patent US11986471B2, “Compounds and methods of use” (Tango Therapeutics, Inc., priority 2018, dated 2024).

Columns and labels:
HAP1 MTAP-intact = assay: SDMA in-cell western assay, HAP1 MTAP-intact cell line; assay type: cell-based; conditions: Homo sapiens
Method in brief: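 Using an MTAP-isogenic HAP1 cell pair, inhibition of SDMA formation is read by in-cell western and expressed as IC50. MTAP-selectivity is assigned where the ratio between lines reaches 3 fold or greater.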

PRMT5 [1] = target: T1, PRMT5 (Homo sapiens, UniProt O14744); assay: PRMT5 IC50 assay in the presence of MTA as cofactor; assay type: biochemical; conditions: for IC50: PRMT5, MTA as cofactor
T1 construct: purchased Viva (custom protein)
T1 sequence (O14744 whole entry): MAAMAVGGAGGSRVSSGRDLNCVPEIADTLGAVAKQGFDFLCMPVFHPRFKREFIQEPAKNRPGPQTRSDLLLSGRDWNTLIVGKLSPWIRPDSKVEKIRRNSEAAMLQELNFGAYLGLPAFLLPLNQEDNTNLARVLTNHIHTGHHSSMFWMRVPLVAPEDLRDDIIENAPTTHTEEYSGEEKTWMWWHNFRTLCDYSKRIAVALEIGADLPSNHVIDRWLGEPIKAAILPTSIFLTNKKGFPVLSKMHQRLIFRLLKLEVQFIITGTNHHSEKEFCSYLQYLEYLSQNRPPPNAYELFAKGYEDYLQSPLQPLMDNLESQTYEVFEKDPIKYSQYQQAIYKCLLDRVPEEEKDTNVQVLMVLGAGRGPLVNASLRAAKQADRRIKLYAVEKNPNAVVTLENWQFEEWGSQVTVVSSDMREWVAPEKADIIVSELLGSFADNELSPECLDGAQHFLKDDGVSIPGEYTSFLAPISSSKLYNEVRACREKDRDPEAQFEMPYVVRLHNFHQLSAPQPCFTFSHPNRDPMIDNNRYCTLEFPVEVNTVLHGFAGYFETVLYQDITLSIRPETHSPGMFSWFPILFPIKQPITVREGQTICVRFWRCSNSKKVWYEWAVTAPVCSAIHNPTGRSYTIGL
T1 sequence (Q9BQA1 whole entry partner): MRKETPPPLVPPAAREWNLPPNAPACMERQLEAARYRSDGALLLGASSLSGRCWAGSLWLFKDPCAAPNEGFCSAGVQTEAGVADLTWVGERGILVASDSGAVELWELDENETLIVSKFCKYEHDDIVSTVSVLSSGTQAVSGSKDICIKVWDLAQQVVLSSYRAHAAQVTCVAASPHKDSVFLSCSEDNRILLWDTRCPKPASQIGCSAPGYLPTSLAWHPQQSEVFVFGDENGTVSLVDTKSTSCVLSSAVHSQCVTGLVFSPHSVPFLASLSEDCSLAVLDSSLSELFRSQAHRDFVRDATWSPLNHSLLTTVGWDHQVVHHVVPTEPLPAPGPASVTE
Method in brief: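 Three cofactor conditions are run: SAM-bound, MTA-bound and cofactor-free enzyme. IC50 is read from each; for the SAM and MTA arms it is divided by 1.5 and 13.5 respectively to give Ki.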

PRMT5 [2] = target: T1, PRMT5; assay: PRMT5 IC50 assay with no cofactor; assay type: biochemical
Method in brief: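 For the SAM-containing format, dividing IC50 by 1.5 yields Ki; for the MTA-containing format the divisor is 13.5. A third format without cofactor gives IC50 alone.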

HAP1 MTAP-deleted = assay: SDMA in-cell western assay, HAP1 MTAP-deleted cell line; assay type: cell-based; conditions: for IC50: Homo sapiens, HAP1 MTAP-deleted cell line; for MTAP Intact/Deleted Ratio: IC50 ratio HAP1 MTAP-intact / HAP1 MTAP-deleted
Method in brief: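 In-cell western for SDMA marks; MTAP-deleted (null) HAP1 background; values given as IC50.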

PRMT5 [3] = target: T1, PRMT5; assay: PRMT5 IC50 assay in the presence of SAM as cofactor; assay type: biochemical
Method in brief: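 IC50 values were measured against human PRMT5 with SAM, with MTA, or with no cofactor. Ki was derived from IC50 as Ki=IC50/1.5 with SAM and Ki=IC50/13.5 with MTA, and the Ki(SAM)/Ki(MTA) ratio was then taken.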

[4] = ratio between Ki in the presence of SAM and Ki in the presence of MTA
[5] = ratio between the Ki in the presence of SAM and the Ki in the presence of MTA

Row | IC50 (HAP1 MTAP-intact) | IC50 (PRMT5 [1]) | IC50 (PRMT5 [2]; read-out: No Co-factor IC50) | IC50 (HAP1 MTAP-deleted) | IC50 (PRMT5 [3]) | IC50 (PRMT5 [2]) | Structure (SMILES) | SAM/MTA Ratio (PRMT5 [1]; [4]) | MTAP Intact/Deleted Ratio (HAP1 MTAP-deleted) | SAM/MTA Ratio (PRMT5 [1]; [5])
1 | ≥ 10000 nM | 500 to 5000 nM | ≥ 5000 nM | ≥ 10000 nM | 500 to 5000 nM |  | Cc1ncoc1COc1ccc2c(c1Br)CCN(C[C@@H](O)CNC(=O)c1cc(NC3CCCC3)ncn1)C2 [Compound 358, (S)—N-(3-(5-bromo-6-((4-methyloxazol-5-yl)methoxy)-3,4-dihydroisoquinolin-2(1H)-yl)-2-hydroxypropyl)-6-(cyclopentylamino)pyrimidine-4-carboxamide] | A (a Ki ratio greater than or equal to 10 fold between the Ki in the presence of SAM and the Ki in the presence of MTA) | C* (an IC50 ratio of less than 3 fold between the IC50 in the HAP1 MTAP-intact cell line and the HAP1 MTAP-deleted cell line) | 
2 | ≥ 10000 nM | 500 to 5000 nM | ≥ 5000 nM | ≥ 10000 nM | 500 to 5000 nM |  | Cc1c(OCc2ccnn2C)ccc2c1CCN(C[C@@H](O)CNC(=O)c1ccnc(NC3CCCCC3)c1)C2 [Compound 278, (S)-2-(cyclohexylamino)-N-(2-hydroxy-3-(5-methyl-6-((1-methyl-1H-pyrazol-5-yl)methoxy)-3N-dihydroisoquinolin-2(1H)-yl)propyl)isonicotinamide] | A (a Ki ratio greater than or equal to 10 fold between the Ki in the presence of SAM and the Ki in the presence of MTA) | C* (an IC50 ratio of less than 3 fold between the IC50 in the HAP1 MTAP-intact cell line and the HAP1 MTAP-deleted cell line) | 
3 | ≥ 10000 nM | 50 to 500 nM | 500 to 5000 nM | 1000 to 10000 nM | 50 to 500 nM |  | O=C(NC[C@H](O)CN1CCc2c(ccc(OCc3cnco3)c2Cl)C1)c1cc(NC2COC2)nc(N2CCCCC2)n1 [Compound 327, (S)—N-(3-(5-chloro-6-(oxazol-5-ylmethoxy)-3N-dihydroisoquinolin-2(1H)-yl)-2-hydroxypropyl)-6-(oxetan-3-ylamino)-2-(piperidin-1-yl)pyrimidine-4-carboxamide] | A (a Ki ratio greater than or equal to 10 fold between the Ki in the presence of SAM and the Ki in the presence of MTA) | B* (an IC50 ratio greater than or equal to 3 fold but lower than 10 fold between the IC50 in the HAP1 MTAP-intact cell line and the HAP1 MTAP-deleted cell line) | 
4 | ≥ 10000 nM | 50 to 500 nM |  | 1000 to 10000 nM | 50 to 500 nM | ≥ 5000 nM | CC(=O)N1CCC(Nc2cc(C(=O)NC[C@H](O)CN3CCc4nc(OCc5ocnc5C)ccc4C3)ncn2)CC1 [Compound 491, 6-[(1-acetyl-4-piperidyl)amino]-N-[(2S)-2-hydroxy-3-[2-[(4-methyloxazol-5-yl)methoxy]-7,8-dihydro-5H-1,6-naphthyridin-6-yl]propyl]pyrimidine-4-carboxamide] |  | C* (an IC50 ratio of less than 3 fold between the IC50 in the HAP1 MTAP-intact cell line and the HAP1 MTAP-deleted cell line) | A (a Ki ratio greater than or equal to 10 fold between the Ki in the presence of SAM and the Ki in the presence of MTA)
5 | ≥ 10000 nM | 50 to 500 nM |  | ≥ 10000 nM | 50 to 500 nM | 500 to 5000 nM | CC(=O)N1CCC(Nc2cncc(C(=O)NC[C@H](O)CN3CCc4cc(OCc5cnco5)ccc4C3)c2)CC1 [Compound 549, (S)-5-((1-acetylpiperidin-4-yl)amino)-N-(2-hydroxy-3-(6-(oxazol-5-ylmethoxy)-3,4-dihydroisoquinolin-2(1H)-yl)propyl)nicotinamide] |  | C* (an IC50 ratio of less than 3 fold between the IC50 in the HAP1 MTAP-intact cell line and the HAP1 MTAP-deleted cell line) | A (a Ki ratio greater than or equal to 10 fold between the Ki in the presence of SAM and the Ki in the presence of MTA)
6 | ≥ 10000 nM | 50 to 500 nM |  | < 1000 nM | 50 to 500 nM | 500 to 5000 nM | CC(C)CC(=O)N1CCC(Nc2cc(C(=O)NC[C@H](O)CN3CCc4c(ccc(OCc5cnco5)c4Cl)C3)ccn2)CC1 [Compound 443, (S)—N-(3-(5-chloro-6-(oxazol-5-ylmethoxy)-3N-dihydroisoquinolin-2(1H)-yl)-2-hydroxypropyl)-2-((1-(3-methylbutanoyl)piperidin-4-yl)amino)isonicotinamide] |  | A* (an IC50 ratio greater than or equal to 10 fold between the IC50 in the HAP1 MTAP-intact cell line and the HAP1 MTAP-deleted cell line) | A (a Ki ratio greater than or equal to 10 fold between the Ki in the presence of SAM and the Ki in the presence of MTA)
7 | ≥ 10000 nM | 50 to 500 nM | ≥ 5000 nM | 1000 to 10000 nM | 500 to 5000 nM |  | O=C(NC[C@H](O)CN1CCc2cc(OCc3cnco3)c(Cl)cc2C1)c1ccnc(NC2CCC2)c1 [Compound 281, N-[(2S)-3-[7-chloro-6-(oxazol-5-ylmethoxy)-3,4-dihydro-1H-isoquinolin-2-yl]-2-hydroxy-propyl]-2-(cyclobutylamino)pyridine-4-carboxamide] | A (a Ki ratio greater than or equal to 10 fold between the Ki in the presence of SAM and the Ki in the presence of MTA) | C* (an IC50 ratio of less than 3 fold between the IC50 in the HAP1 MTAP-intact cell line and the HAP1 MTAP-deleted cell line) | 

Further lines, the compound ahead of its results:

Row | Structure (SMILES) | IC50 (HAP1 MTAP-intact) | IC50 (PRMT5 [1]) | IC50 (PRMT5 [2]; read-out: No Co-factor IC50) | IC50 (HAP1 MTAP-deleted) | IC50 (PRMT5 [3]) | IC50 (PRMT5 [2]) | SAM/MTA Ratio (PRMT5 [1]; [4]) | MTAP Intact/Deleted Ratio (HAP1 MTAP-deleted) | SAM/MTA Ratio (PRMT5 [1]; [5])
8 | Cc1nocc1COc1ccc2c(c1C)CCN(C[C@@H](O)CNC(=O)c1ccnc(NC3CCC3)c1)C2 [Compound 263, 2-(cyclobutylamino)-N-[(2S)-2-hydroxy-3-[5-methyl-6-[(3-methylisoxazol-4-yl)methoxy]-3,4-dihydro-1H-isoquinolin-2-yl]propyl]pyridine-4-carboxamide] | ≥ 10000 nM | 500 to 5000 nM | ≥ 5000 nM | ≥ 10000 nM | 500 to 5000 nM |  | A (a Ki ratio greater than or equal to 10 fold between the Ki in the presence of SAM and the Ki in the presence of MTA) | C* (an IC50 ratio of less than 3 fold between the IC50 in the HAP1 MTAP-intact cell line and the HAP1 MTAP-deleted cell line) | 
9 | CC(=O)N1CCC(Nc2cc(C(=O)NC[C@H](O)CN3CCc4cc(OCc5cnco5)ccc4C3)ccn2)CC1 [Compound 471, 2-[(1-acetyl-4-piperidyl)amino]-N-[(2S)-2-hydroxy-3-[6-(oxazol-5-ylmethoxy)-3,4-dihydro-1H-isoquinolin-2-yl]propyl]pyridine-4-carboxamide] | 1000 to 10000 nM | 50 to 500 nM |  | 1000 to 10000 nM | 50 to 500 nM | 500 to 5000 nM |  | B* (an IC50 ratio greater than or equal to 3 fold but lower than 10 fold between the IC50 in the HAP1 MTAP-intact cell line and the HAP1 MTAP-deleted cell line) | A (a Ki ratio greater than or equal to 10 fold between the Ki in the presence of SAM and the Ki in the presence of MTA)
10 | Cc1c(OCc2cnco2)ccc2c1CCN(C[C@@H](O)CNC(=O)c1ccnc(NC3CC4CCCC43)c1)C2 (stereo partly drawn) [Compound 486, 2-(bicyclo[3.2.0]heptan-6-ylamino)-N—((S)-2-hydroxy-3-(5-methyl-6-(oxazol-5-ylmethoxy)-3,4-dihydroisoquinolin-2(1H)-yl)propyl)isonicotinamide] | ≥ 10000 nM | 50 to 500 nM |  | 1000 to 10000 nM | 50 to 500 nM | ≥ 5000 nM |  | C* (an IC50 ratio of less than 3 fold between the IC50 in the HAP1 MTAP-intact cell line and the HAP1 MTAP-deleted cell line) | A (a Ki ratio greater than or equal to 10 fold between the Ki in the presence of SAM and the Ki in the presence of MTA)
11 | CCN1CCN(c2nc(NC3COC3)cc(C(=O)NC[C@H](O)CN3CCc4c(ccc(OCc5cnco5)c4Cl)C3)n2)CC1 [Compound 324] | ≥ 10000 nM | 50 to 500 nM | 500 to 5000 nM | 1000 to 10000 nM | 50 to 500 nM |  | A (a Ki ratio greater than or equal to 10 fold between the Ki in the presence of SAM and the Ki in the presence of MTA) | C* (an IC50 ratio of less than 3 fold between the IC50 in the HAP1 MTAP-intact cell line and the HAP1 MTAP-deleted cell line) | 
12 | O=C(NC[C@H](O)CN1CCc2cc(OCc3cnco3)c(F)cc2C1)c1ccnc(NC2CCC2)c1 [Compound 513, 2-(cyclobutylamino)-N-[(2S)-3-[7-fluoro-6-(oxazol-5-ylmethoxy)-3,4-dihydro-1H-isoquinolin-2-yl]-2-hydroxy-propyl]pyridine-4-carboxamide] | ≥ 10000 nM | 50 to 500 nM |  | 1000 to 10000 nM | 500 to 5000 nM | ≥ 5000 nM |  | B* (an IC50 ratio greater than or equal to 3 fold but lower than 10 fold between the IC50 in the HAP1 MTAP-intact cell line and the HAP1 MTAP-deleted cell line) | A (a Ki ratio greater than or equal to 10 fold between the Ki in the presence of SAM and the Ki in the presence of MTA)
